From US20220145264A1, “CULTURE MEDIUM FOR MAMMALIAN EXPANDED POTENTIAL STEM CELLS, COMPOSITION, AND METHODS THEREOF” (THE UNIVERSITY OF HONG KONG, priority 2019, published 2022)

Tested on: pEPSCs^Emb
Assay: Requirement of individual culture components for pEPSCs (RT-qPCR, AP+ colony formation)
Format: cell-based, porcine
Experimental: Porcine and human EPSC cultures were routinely maintained on STO feeders. STO feeder plates were prepared 3-4 days before passaging by thawing and plating the mitomycin C inactivated STO cells on 0.1% gelatinised plates at the density of ˜1.1×10^4 cells/cm^2. Porcine/human EPSC cells were maintained on STO feeder layers and enzymatically passaged every 3-5 days by a brief PBS wash followed by treatment for 3-5 minutes with 0.25% trypsin/EDTA (Gibco, Cat. No. 25500-054). The cells were dissociated and centrifuged (300 g×5 minutes) in M10 medium. M10: knockout DMEM (Gibco, Cat. No. 10829-018), 10% FBS (Gibco, Cat. No. 10270), 1× Glutamine Penicillin-Streptomycin (Thermo Fisher Scientific, Cat. No. 11140050) and 1×NEAA (Thermo Fisher Scientific, Cat. No. 10378-016). After removing supernatant, the porcine/human EPSCs were re-suspended and seeded in pEPSCM/hEPSCM supplemented with 5 μM ROCK inhibitor Y-27632 (Tocris, Cat. No. 1254). 5% FBS (Gibco, Cat. No. 10270) and 10% KnockOut Serum Replacement (KSR) (Gibco, Cat. No. 10828028) were added in pEPSCM and hEPSCM respectively to improve cells survive. 12-24 hours later, medium was switched to pEPSCM/hEPSCM only. Both pEPSCM and hEPSCM are N2B27 based media. N2B27 basal media (500 ml) was prepared by inclusion of the following components: 482.5 ml DMEM/F-12 (Gibco, Cat. No. 21331-020), 2.5 ml N2 supplement (Thermo Fisher Scientific, Cat. No. 17502048), 5 ml B27 supplement (Thermo Fisher Scientific, Cat. No. 17504044), 5 ml 1× Glutamine Penicillin-Streptomycin (Thermo Fisher Scientific, Cat. No. 11140-050), and 5 ml 1×NEAA (Thermo Fisher Scientific, Cat. No. 10378-016), 0.1 mM 2-mercaptoethanol (Sigma, Cat. No. M6250). pEPSCM (500 ml) was generated by adding the following small molecules and cytokines into 500 ml N2B27 basal media: 0.2 μM CHIR99021(GSK3i, TOCRIS, Cat. No. 4423), 1 μM WH-4-023 (SRC inhibitor, TOCRIS, Cat. No. 5413), 2.5 μM XAV939 (Sigma, Cat. No. X3004) or 2.5 μM IWR-1 (TOCRIS, Cat. No. 3532), […] Vitamin C (Sigma, Cat. No. 49752-100G), 10 ng/ml LIF (Stem Cell Institute, University of Cambridge. SCI) and 20 ng/ml ACTIVIN (SCI). hEPSCM (500 ml) was generated by adding the following components into 500 ml N2B27 basal media: 1.0 μM CHIR99021(GSK3 inhibitor, TOCRIS, Cat. No. 4423), 0.5 μM A-419259 (SRC inhibitor, TOCRIS, Cat. No. 3914), 2.5 μM XAV939 (Sigma, Cat. No. X3004), […] Vitamin C (Sigma, Cat. No. 49752-100G), 10 ng/ml LIF (SCI). Although both targeting SRC family kinases (SFKs), WH-4-023 and A419259 were preferred for porcine and human EPSCs, respectively. […] The concentrations of CHIR99021 for porcine and human EPSC cultures are 0.2 μM and 1.0 μM, respectively. […] 0.25 μM SB 590885 (BRAF inhibitor, R&D, Cat. No. 2650) and 2.0 μM SP600125 ([…], TOCRIS, Cat. No. 1496) were included to improve porcine and human EPSC cultures, but they were not essential for the routine maintenance of porcine and human EPSCs. All cell cultures in this paper were performed under conditions of 37° C. and 5% CO2 unless stated otherwise.
Total RNA was isolated using an RNeasy Mini Kit (Qiagen, Cat. No. 74106) for cultured cells or RNeasy Micro Kit (Qiagen, Cat. No. 74034) for sorted NANOS3-mCherry^+ cells. RNA was subsequently quantified and treated with gDNA WipeOut to remove genomic DNA. Complementary DNA (cDNA) was prepared using a QuantiTect Reverse Transcription Kit (Qiagen, Cat. No. 205311). RT-qPCR primers or TaqMan Gene Expression Assays (Life Technologies) are listed in Supplementary Table 10 and 11. ABsolute Blue qPCR ROX Mix (ABgene, Cat. No. AB4138B) were used for probe based qPCR assays and SYBR Green ROX qPCR Mastermix (Qiagen, Cat. No. 330523) were used for primer based qPCR assays. All qPCR reactions were performed on ABI 7900 HT Sequence Detection System (Life Technologies). Information on all primers and probes used for qPCR analysis are provided in Supplementary Table 10 and 11. Gene expression was determined relative to GAPDH using the […]. […]

Row | Compound | cell survival and pluripotency factor expression (removing ACTIVIN A from pEPSCM) | pEPSC survival as measured by colony formation in serial passaging (0.1 μM added to pEPSCM)
1 | ACTIVIN A: Human Recombinant ACTIVIN A cytokine | massive cell loss and down-regulation of pluripotency factors | –
2 | O=C(NOC[C@H](O)CO)c1ccc(F)c(F)c1Nc1ccc(I)cc1F [PD0325901] | – | decreased pEPSC survival
